The values that follow come from US10220091B2, “Combination treatments with sonic hedgehog inhibitors” (The General Hospital Corporation, priority 2013, dated 2019).

In test [1] the test system is Colo38, Colo38R, M21, M21R and TPF-10-741 cells. Briefly: MTT dose titration of PDGFRα-I. The note with it: Homo sapiens; dose titration experiment, MTT assay, the 5 cell lines; read-out: IC50 doses. It is filed as cell-based. The protocol:
MTT assay was carried out as reported elsewhere^2. […] All experiments were performed three independent times in triplicates.
A dose titration experiment established the dose of PDGFRα-I to be combined with vemurafenib in the 5 cell lines.
(In general: Tetrazolium dyes change colour on reduction, which living cells bring about.)

In a further test the test system is melanoma cells. Briefly: Overcoming BRAF-I resistance mediated by PDGFRβ upregulation. It is filed as cell-based. Conditions: as reported and as found by the applicant.
The next test relates to p-ERK. Briefly: Western blot of cell lysates, p-ERK. Conditions: Colo38R, M21R and TPF-10-741 cells; vemurafenib 1 μM, sunitinib 3 μM, imatinib 20 μM. (Immunoblotting shows a protein as a band on a membrane.)

Molecules are shown by their SMILES.

Method for p-ERK: A. Following an incubation at indicated time points at 37° C. cells were harvested and lysed. Cell lysates were analyzed by western blot with the indicated mAbs. β-actin-was used as a loading control. B. Following a 48 h incubation at 37° C. cells were harvested and lysed. Cell lysates were analyzed by western blot with the indicated mAbs. β-actin or Calnexin were used as a loading control. The results presented are representative of the results obtained in three independent experiments.
A. M21R and TPF-10-741 cells were transduced with PDGFRα-specific shRNA (#4) or with GFP-shRNA, used as a control, lentiviral particles. […] Following a three day incubation at 37° C. cells were harvested and lysed. Cell lysates were analyzed by western blot with the indicated mAbs. β-actin was used as a loading control. […] Cell proliferation was determined by MTT assay following a three day incubation at 37° C. Percentage of cell proliferation was calculated as the ratio of treated cells to untreated GFP-shRNA transduced cells. Data are expressed as mean±SD of the results obtained in three independent experiments. *** indicates P<0.01.
Following an incubation at indicated time points at 37° C. cells were harvested and lysed. Cell lysates were analyzed by western blot with the indicated mAbs. β-actin was used as a loading control. […]

Consider `CC1(COc2ccc3c(c2)ncn3-c2ccc3cccc(N4CCC(N)CC4)c3n2)COC1` [crenolanib], for which the IC50 (usually the concentration that inhibits the measured activity by half) in test [1] was determined as 1000 nM.
Turning to `Cc1ccc(NC(=O)c2ccc(CN3CCN(C)CC3)cc2)cc1Nc1nccc(-c2cccnc2)n1` [imatinib], the “ability to overcome BRAF-I resistance mediated by PDGFRβ upregulation” value in the test with melanoma cells is reported as “not able to overcome”.
In the case of `CCN(CC)CCNC(=O)c1c(C)[nH]c(/C=C2\C(=O)Nc3ccc(F)cc32)c1C` [sunitinib], the IC50 in test [1] came to 2000 nM.
Turning to `CCCS(=O)(=O)Nc1ccc(F)c(C(=O)c2c[nH]c3ncc(-c4ccc(Cl)cc4)cc23)c1F` [vemurafenib], the p-ERK levels entry in the test on p-ERK is “not inhibited”.
